This is an account of results in patent publication US7598244B2, “[1,2,4]triazolo[1,5,a]pyrimidin-2-ylurea derivative and use thereof” (Nippon Kayaku Kabushiki Kaisha, priority 2003, dated 2009).

For assay [1], the system named is MHC class I molecules of T1 cells (human lymphoma cell line 174×CEM.). Kind of assay: Effect on expression of MHC class I from T1 cells (flow cytometry, MFI). In kind it is cell-based. The note with it: 3 days culture. Put shortly:
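EC20 is the compound level that lowers MHC class I MFI by 20% relative to compound-free cultures. Read-out was flow cytometry after FITC W6/32 staining.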

For the next assay, the system named is BALB/c mice. Kind of assay: Effect on mouse plaque forming cells (PFCs) to sheep erythrocytes. In kind it is in vivo. The note with it: Oral, 50 mg/kg/single administration, twice a day for 4 days. The procedure: Effect on Mouse Plaque Forming Cells (PFCs)
Sheep erythrocytes (Nippon Seibutsu Zairyo Center, Co., Ltd.) were intraperitoneally administered to each of BALB/c mice (Charles River Japan, Inc.; female; 8-week-old) at an amount of 1.0×10^8 cells. Thereafter, a test compound was administered thereto twice a day for 4 days after the first administration (only once on the first day) (n=4). On the day subsequent to completion of the administration of the test compound, splenic cells were prepared from the mouse, and the number of PFCs to the sheep erythrocytes was counted by the method of Cunninham (Cunninham, A. J. et al., Immunology, vol. 14, p. 599 (1968)). The number of PFCs per number of splenic cells of 1.0×10^6 was obtained. The reduction rate of the number of PFC in the mouse to which the test compound had been administered, to the number of PFCs in a control mouse to which the test compound had not been administered but only a solvent had been administered, was calculated using the following formula (4).
[formula] • Eexp: The number of PFCs per 1×10^6 splenic cells of mouse to which test compound was administered • Cexp: The number of PFCs per 1×10^6 splenic cells of mouse to which solvent was administered

The next assay has as its system CD1a. Kind of assay: Expression of antigen-presenting and costimulatory molecules of human peripheral blood-derived dendritic cells: CD1a. In kind it is cell-based. Conditions: Analyte 1 (dendritic cells of one healthy subject), 3 days. The procedure:
Action on Expression of Antigen-Presenting Molecules and Costimulatory Molecules of Human Peripheral Blood-Derived Dendritic Cells
The dendritic cells obtained by the same method as in Test Example 2 were suspended in RPMI 1640 comprising 10% FCS containing 500 U/ml GM-CSF, 50 ng/ml IL-4, and 100 U/ml human recombinant tumor necrosis factor (2.5×10^6 cells/ml). Thereafter, the suspension was inoculated into a 6-well plate at an amount of 2.0 ml/well, and the test compound was then added thereto. The mixture was cultured at 37° C. for 3 days in an incubator containing 5% carbon dioxide. Thereafter, the suspended cells were recovered. The cells were then stained with fluoroisothiocyanate-labeled mouse monoclonal antibodies reacting with MHC class I (Bechman Coulter), CD1a (Immunotech), CD40 (Pharmingen), CD80 (Pharmingen), and CD83 (Immunotech). Thereafter, mean fluorescence intensity and the ratio of positive cells were measured by flow cytometry. The expression level was calculated by the formula “the mean fluorescence intensity x the ratio of positive cells,” and the inhibition rate of the surface antigen expression level of dendritic cells was then obtained by the following formula (8). […]

As to `CC(C)NC(=O)Nc1nc2nccc(-c3cccs3)n2n1` [Example 029, 1-isopropyl-3-(7-thiophen-2-yl[1,2,4]triazolo[1,5-a]pyrimidin-2-yl)urea], in assay [1], the “EC20 (concentration necessary for suppressing 20% of the expression level of MHC class I molecules)” value came to 234 nM. In the assay on BALB/c mice, the “Reduction rate (%) of number of PFCs” value is 49.3%. Moreover, the “Expression inhibition rate by test compound (%), CD1a” value in the assay with CD1a amounted to 55.6%.
